Results: patent US3974281A, “5-Methyl-1-phenyl-2-(1H)-pyridone compositions and methods of use” (priority 1974, dated 1976)

Assays:
[1] = system: rats with the hind limb inflammed; assay: Analgesic activity, rats with inflamed hind limb (absence of squeal on flexion of inflamed ankle joint); format: in vivo, rat; details: for ED50: Rattus norvegicus, read-out: oral ED50 (median analgesic dose); for ED50 / side effects at the median analgesic dose: oral; for side effects at the median analgesic dose: at ED50 dosage (AMR-94 160 mg./kg.; AMR-93 325 mg./kg.)
Method: the end-point for analgesic testing in rats with the hind limb inflammed is based on the absence of a squeal in response to flexion of the inflammed ankle joint (Method described by S. Margolin, Proceedings of an International Symposium on Non-Steroidal Anti-Inflammatory Drugs, Excerpta Medica International Congress, Series No. 82, 1964).
With AMR-93, the median effective dose was 325 ± 45 mg./kg.

[2] = system: edema (swelling), experimental inflammation in the hind limb of rats; assay: Anti-inflammatory activity, reduction of edema of experimentally inflamed hind limb; format: in vivo, albino rats; details: for anti-inflammatory effect: oral dosage of 600 mg./kg.; for ED50: Rattus norvegicus, read-out: oral median effective dose (ED50), anti-inflammatory
Method: anti-inflammatory activity was assayed by the method described by Margolin (ibid.) utilizing albino rats. The anti-inflammatory bio-assay basis is the ability to reduce the edema (swelling) when an experimental inflammation is induced in the hind limb of the rats.

[3] = system: experimentally-induced fever in albino rabbits; assay: Anti-pyretic activity, experimentally-induced fever in rabbits; format: in vivo; details: for anti-pyretic activity: induced fever
Method: anti-pyretic activity testing is based upon the ability of the drug to suppress the experimentally-induced fever in albino rabbits (F. M. Berger, et al. J. Pharmacology and Experimental Therapeutics, Vol. 127, No. 1, 1959 based upon the original presentations of G. Brownlee Quart. J. Pharm; Vol. 10, Pg. 609, 1937 and Quart. J. Pharm., Vol. 12, Pg. 45, 1939). The drugs under test are administered intraperitoneally and the response is compared to that of saline controls. The average change in temperature over a period of three hours following the administration of aminopyrine (100 mg./kg. i.p.), AMR-69 (100 mg./kg. i.p.) and the saline (isotonic) controls were as follows:
The effective anti-pyretic activity of AMR-69 in rabbits has been noted previously.

[4] = system: mucous membranes of the nasopharynx and lungs; assay: Protection of mucous membranes of the nasopharynx and lungs, comparison with related pyridones; format: in vivo; details: for protection of mucous membranes of the nasopharynx and lungs: comparison with related pyridones; for side effects / deleterious effects on the respiratory system: mucous membrane protection tests
[5] = General comparison of side effects and therapeutic activity in the several tests; details: in vivo
[6] = system: serum uric acid; assay: Reduction in serum uric acid levels, rats; format: in vivo, albino male and female rats; details: albino male and female rats, similar tests
Method: normal adult albino male and female rats were given repeated graded doses of AMR-69 and the effect upon serum uric acid levels was determined. There were 10 males and 10 females in each group. The control group received the placebo and the drug was administered orally by admixture to the food. The serum uric acid determination was one of a series performed utilizing the Autotechnicon technique (Lofland et al., 1965 Technicon Symposium) using the Standard SMA-12 procedure (based upon procedure of Bittner et al., AM. J. Clin. Path. 40:423, 1963).
The lowering in serum uric acid levels shown by AMR-69 in tests on rats and on dogs has been noted.

[7] = system: experimentally-induced fever in albino rabbits; assay: Anti-pyretic activity, experimentally-induced fever in rabbits; format: in vivo; details: animals without experimentally induced fever as well
[8] = Acute toxicity in mice; format: in vivo; details: mouse, in vivo, ip; fasted albino mice, intraperitoneal; read-out: Intraperitoneally LD50
Method: in fasted albino mice (Flanders) the LD50 for AMR-69 and aminopyrine was determined by standard procedures with the following results: […]

| Compound | ED50 [1] | analgesic activity relative to AMR-69 ([1]; oral route) | anti-inflammatory effect [2] | anti-pyretic activity ([3]; rabbits) | protection of mucous membranes of the nasopharynx and lungs [4] | side effects / deleterious effects on the respiratory system [4] | deleterious side effects in the several tests [5] | therapeutic activity in the several tests [5] | side effects at the median analgesic dose [1] | change in serum uric acid level [6] | analgesic effect at a dosage low enough to obviate Central Nervous System depression [1] | ED50 ([2]; oral) | side-effects at anti-inflammatory ED50 ([2]; oral) | convulsions observed, test animals ([3]; rabbits) | effect on normal body temperature [7] | average change in temperature over a period of three hours ([3]; 100 mg./kg. i.p., fevered albino rabbits, saline controls +0.9 ±0.17°C) | reduction in fever as compared to the saline control ([3]; 100 mg./kg. i.p., aminopyrine t = 6.6, p < 0.01, AMR-69 t = 6.3, p < 0.01) | LD50 [8] |
| --- | --- | --- | --- | --- | --- | --- | --- | --- | --- | --- | --- | --- | --- | --- | --- | --- | --- | --- |
| Cc1cccn(-c2ccccc2)c1=O [AMR-77, 3-methyl-1-phenyl-2-(1H)-pyridone] | 515 ± 45 mg/kg | approximately one-third to one-fourth the activity of AMR-69 | No anti-inflammatory effect was observed | No significant anti-pyretic activity was observed | no evidence of protective action | No acute deleterious effects on the respiratory system were observed | not observed | neither was significant therapeutic activity demonstrated | – | – | – | – | – | – | – | – | – | – |
| O=c1ccccn1-c1ccccc1 [AMR-93, 1-phenyl-2-(1H)-pyridone] | 325 ± 45 mg/kg | – | No anti-inflammatory effect was observed | No significant anti-pyretic activity was observed | did not show a protective effect | undesirable side effects were evident | accompanied by deleterious side effects | – | acute bleeding from the nose and an autopsy revealed multiple hemorrhages and edema of the lungs | did not show a significant change in serum uric acid level | – | – | – | – | – | – | – | – |
| CCc1ccc(=O)n(-c2ccccc2)c1 [AMR-94, 5-ethyl-1-phenyl-2-(1H)-pyridone] | 160 ± 32 mg/kg | – | – | slight reduction in induced fever which was not considered statistically significant | did not show a protective effect | undesirable side effects were evident | accompanied by deleterious side effects | – | marked sedation, Central Nervous System depression, loss of respiratory efficiency, ataxia, and uncoordinated gait | did not show a significant change in serum uric acid level | could not be demonstrated | 225 ± 52 mg/kg | accompanied by undesired side-effects | two of the four | marked lowering of normal body temperature | – | – | – |
| Cc1c(N(C)C)c(=O)n(-c2ccccc2)n1C [Aminopyrine, aminopyrine, reference compound] | 150 ± 26 mg/kg | – | – | – | – | – | – | – | – | – | – | 185 ± 31 mg/kg | – | – | – | -0.6 ±0.16 °C | highly significant | 175 ± 9 mg/kg |
